Measured values published in ChEMBL document CHEMBL4196012 (Eur J Med Chem, 2018).
Converted amounts (≈) assume the structure as drawn.

Key:
Type in all cases: functional
Escherichia coli [1] = experiment: Antibacterial activity against Escherichia coli after 24 hrs by agar streak dilution method
Pseudomonas aeruginosa [2] = experiment: Potency index, ratio of ciprofloxacin MIC to compound MIC for antibacterial activity against Pseudomonas aeruginosa
Escherichia coli [3] = experiment: Potency index, ratio of ciprofloxacin MIC to compound MIC for antibacterial activity against Escherichia coli
Pseudomonas aeruginosa [4] = experiment: Antibacterial activity against Pseudomonas aeruginosa after 24 hrs by agar streak dilution method
Escherichia coli [5] = experiment: Antibacterial activity against Escherichia coli ATCC 8739 by agar dilution method
Klebsiella pneumoniae = experiment: Antibacterial activity against Klebsiella pneumoniae ATCC 10031 by agar dilution method
Pseudomonas aeruginosa [6] = experiment: Antibacterial activity against Pseudomonas aeruginosa ATCC 9027 by agar dilution method
Bacillus subtilis [7] = experiment: Antibacterial activity against Bacillus subtilis PTCC 1023 by agar dilution method
Staphylococcus aureus [8] = experiment: Antibacterial activity against Staphylococcus aureus ATCC 6538P by agar dilution method
[9] = system: Staphylococcus epidermidis; experiment: Antibacterial activity against Staphylococcus epidermidis ATCC 12228 by agar dilution method
Escherichia coli [10] = experiment: Potency index, ratio of ampicillin MIC to compound MIC for antibacterial activity against Escherichia coli ATCC 25922
[11] = system: Yersinia pseudotuberculosis; experiment: Potency index, ratio of ampicillin MIC to compound MIC for antibacterial activity against Yersinia pseudotuberculosis ATCC 911
Pseudomonas aeruginosa [12] = experiment: Potency index, ratio of ampicillin MIC to compound MIC for antibacterial activity against Pseudomonas aeruginosa ATCC 43288
Enterococcus faecalis [13] = experiment: Potency index, ratio of ampicillin MIC to compound MIC for antibacterial activity against Enterococcus faecalis ATCC 29212
Staphylococcus aureus [14] = experiment: Potency index, ratio of ampicillin MIC to compound MIC for antibacterial activity against Staphylococcus aureus ATCC 25923
Bacillus cereus [15] = experiment: Potency index, ratio of ampicillin MIC to compound MIC for antibacterial activity against Bacillus cereus 709 Roma
[16] = system: Mycolicibacterium smegmatis; experiment: Potency index, ratio of ampicillin MIC to compound MIC for antibacterial activity against Mycobacterium smegmatis ATCC 607
Candida albicans = experiment: Potency index, ratio of ampicillin MIC to compound MIC for antifungal activity against Candida albicans ATCC 60193
Saccharomyces cerevisiae = experiment: Potency index, ratio of ampicillin MIC to compound MIC for antifungal activity against Saccharomyces cerevisiae RSKK 251
[17] = system: Yersinia pseudotuberculosis; experiment: Antibacterial activity against Yersinia pseudotuberculosis ATCC 911 after 18 to 24 hrs by double microdilution method
Enterococcus faecalis [18] = experiment: Antibacterial activity against Enterococcus faecalis ATCC 29212 after 18 to 24 hrs by double microdilution method
Staphylococcus aureus [19] = experiment: Antibacterial activity against Staphylococcus aureus ATCC 25923 after 18 to 24 hrs by double microdilution method
Bacillus cereus [20] = experiment: Antibacterial activity against Bacillus cereus 709 Roma after 18 to 24 hrs by double microdilution method
[21] = system: Mycolicibacterium smegmatis; experiment: Antibacterial activity against Mycobacterium smegmatis ATCC 607 after 48 to 72 hrs by double microdilution method
Escherichia coli [22] = experiment: Antibacterial activity against Escherichia coli ATCC 35218 after 18 to 24 hrs by double microdilution method
Pseudomonas aeruginosa [23] = experiment: Antibacterial activity against Pseudomonas aeruginosa ATCC 10145 after 18 to 24 hrs by double microdilution method
Staphylococcus aureus [24] = experiment: Antibacterial activity against methicillin-sensitive Staphylococcus aureus ATCC 25923 after 18 hrs by broth microdilution method; settings: ATCC 25923, 18 h
Staphylococcus aureus [25] = experiment: Antibacterial activity against methicillin-sensitive Staphylococcus aureus ATCC 6538 after 18 hrs by broth microdilution method; settings: ATCC 6538, 18 h
Staphylococcus aureus [26] = experiment: Antibacterial activity against methicillin-resistant Staphylococcus aureus MIKROBANK 14001 by broth microdilution method
[27] = system: Staphylococcus epidermidis; experiment: Antibacterial activity against Staphylococcus epidermidis ATCC 12228 after 18 hrs by broth microdilution method; settings: ATCC 12228, 18 h
Bacillus subtilis [28] = experiment: Antibacterial activity against Bacillus subtilis ATCC 6638 after 18 hrs by broth microdilution method; settings: ATCC 6638, 18 h
Micrococcus luteus = experiment: Antibacterial activity against Micrococcus luteus ATCC 10240 after 18 hrs by broth microdilution method; settings: ATCC 10240, 18 h
Bacillus cereus [29] = experiment: Antibacterial activity against Bacillus cereus ATCC 10876 after 18 hrs by broth microdilution method; settings: ATCC 10876, 18 h

Structure (SMILES): CCOc1ccc2nc(C3C(=O)CSC3N3CCN(c4cc5c(cc4F)c(=O)c(C(=O)O)cn5C4CC4)CC3)sc2c1 (centres undefined)
- MIC (Escherichia coli [1]): 2 µg/mL (≈ 3.29 µM)
- Ratio (Pseudomonas aeruginosa [2]): 3
- Ratio (Escherichia coli [3]): 3
- MIC (Pseudomonas aeruginosa [4]): 2 µg/mL (≈ 3.29 µM)

Structure (SMILES): O=C(O)c1cn(C2CC2)c2cc(N3CCN(c4nnc(-c5ccc([N+](=O)[O-])s5)s4)CC3)c(F)cc2c1=O
- MIC (Escherichia coli [5]): 2 to 64 µg/mL (≈ 3.69 to 118 µM)
- MIC (Klebsiella pneumoniae): 2 to 64 µg/mL (≈ 3.69 to 118 µM)
- MIC (Pseudomonas aeruginosa [6]): 2 to 64 µg/mL (≈ 3.69 to 118 µM)
- MIC (Bacillus subtilis [7]): 0.008 to 0.015 µg/mL (≈ 0.0147 to 0.0276 µM)
- MIC (Staphylococcus aureus [8]): 0.008 to 0.015 µg/mL (≈ 0.0147 to 0.0276 µM)
- MIC [9]: 0.008 to 0.015 µg/mL (≈ 0.0147 to 0.0276 µM)

Structure (SMILES): O=C(O)c1cn(C2CC2)c2cc(N3CCN(Cn4nc(CN5CCSCC5)oc4=S)CC3)c(F)cc2c1=O
- Ratio (Escherichia coli [10]): >41
- Ratio [11]: >41
- Ratio (Pseudomonas aeruginosa [12]): >41
- Ratio (Enterococcus faecalis [13]): >41
- Ratio (Staphylococcus aureus [14]): >41
- Ratio (Bacillus cereus [15]): >41
- Ratio [16]: >41
- Ratio (Candida albicans): >41
- Ratio (Saccharomyces cerevisiae): >41

Structure (SMILES): CCn1c(CN2CCN(c3ccccc3OC)CC2)nn(CN2CCN(c3cc4c(cc3F)c(=O)c(C(=O)O)cn4C3CC3)CC2)c1=S
- MIC [17]: < 0.24 µg/mL
- MIC (Enterococcus faecalis [18]): < 0.24 µg/mL
- MIC (Staphylococcus aureus [19]): < 0.24 µg/mL
- MIC (Bacillus cereus [20]): < 0.24 µg/mL
- MIC [21]: < 0.24 µg/mL
- MIC (Escherichia coli [22]): < 0.24 µg/mL
- MIC (Pseudomonas aeruginosa [23]): < 0.24 µg/mL

Structure (SMILES): O=C(O)c1cn(C2CC2)c2cc(N3CCN(Cn4nc(-c5cccc(O)c5)n(Cc5ccc(Br)cc5Cl)c4=S)CC3)c(F)cc2c1=O
- MIC (Staphylococcus aureus [24]): 0.01 to 1.32 µM (≈ 0.0074 to 0.977 µg/mL)
- MIC (Staphylococcus aureus [25]): 0.01 to 1.32 µM (≈ 0.0074 to 0.977 µg/mL)
- MIC (Staphylococcus aureus [26]): 0.01 to 1.32 µM (≈ 0.0074 to 0.977 µg/mL)
- MIC [27]: 0.01 to 1.32 µM (≈ 0.0074 to 0.977 µg/mL)
- MIC (Bacillus subtilis [28]): 0.01 to 1.32 µM (≈ 0.0074 to 0.977 µg/mL)
- MIC (Micrococcus luteus): 0.01 to 1.32 µM (≈ 0.0074 to 0.977 µg/mL)
- MIC (Bacillus cereus [29]): 0.01 to 1.32 µM (≈ 0.0074 to 0.977 µg/mL)

Structure (SMILES): Cn1c([N+](=O)[O-])cnc1-c1nnc(N2CCN(c3cc4c(cc3F)c(=O)c(C(=O)O)cn4C3CC3)CC2)s1
- MIC (Escherichia coli [5]): 2 to 64 µg/mL (≈ 3.7 to 118 µM)
- MIC (Klebsiella pneumoniae): 2 to 64 µg/mL (≈ 3.7 to 118 µM)
- MIC (Pseudomonas aeruginosa [6]): 2 to 64 µg/mL (≈ 3.7 to 118 µM)
- MIC (Bacillus subtilis [7]): 0.008 to 0.015 µg/mL (≈ 0.0148 to 0.0278 µM)
- MIC (Staphylococcus aureus [8]): 0.008 to 0.015 µg/mL (≈ 0.0148 to 0.0278 µM)
- MIC [9]: 0.008 to 0.015 µg/mL (≈ 0.0148 to 0.0278 µM)
